In ChEMBL document CHEMBL1129248, “7-[3-(1-piperidinyl)propoxy]chromenones as potential atypical antipsychotics” (1996) one finds ED50 and inhibition in vivo data, which are given here for 13 compounds.

A value given as a limit tells only on which side of the number the result lay.

Experiment [1] has as its system Mus musculus. Description: Inhibition of apomorphine-induced climbing behavior in mice, after peroral administration. It counts as functional. The following applies: po.
Experiment [2] is described as follows: Inhibition of apomorphine-induced climbing behavior in mice, after intraperitoneal administration. It counts as functional. The settings on record: Mus musculus, ip.
The subject of experiment [3] is Rattus norvegicus. Description: Percent inhibition of apomorphine-induced stereotypy in rat after an intraperitoneal dose of 50 mg/kg. It counts as functional. The settings on record: ip.
For experiment [4], the system named is Mus musculus. In words: Inhibition of apomorphine-induced Hyperactivity in mice, after Intraperitoneal administration. It counts as functional. The following applies: ip.
Experiment [5] can be described thus: Inhibition of apomorphine-induced hyperactivity in mice after peroral administration. It counts as functional. The settings on record: Mus musculus, po.
Experiment [6] in a line: Inhibition of apomorphine-induced hyperactivity behavior in mice, after peroral administration. The class given is functional. The following applies: Mus musculus, po.
In experiment [7] the test system is Rattus norvegicus. In words: Inhibition of apomorphine-induced stereotypy in rat, after peroral administration. It counts as functional. The settings on record: po.
For experiment [8], the system named is Rattus norvegicus. Description: Dose required to induce 50% maximum catalepsy in rat administered perorally. The class given is functional. The settings on record: po.
The nature of experiment [9]: (§1) Inhibition of apomorphine-induced climbing behavior in mice, after Intraperitoneal administration. The class given is functional. The following applies: Mus musculus, ip.
The subject of experiment [10] is Mus musculus. In words: Inhibition of apomorphine-induced hyperactivity in mice, after peroral administration. The following applies: po. It counts as functional.
Experiment [11] relates to Rattus norvegicus. In words: Inhibition of apomorphine-induced stereotypy in rat after peroral administration. It counts as functional. The following applies: po.
Experiment [12] deals with Mus musculus. In words: Inhibition of apomorphine-induced hyperactivity in mice, after peroral administration. The settings on record: po.
For experiment [13], the species on record is Rattus norvegicus. In words: Dose required to induce 50% maximum catalepsy in rat. The class given is functional.
For experiment [14], the system named is Rattus norvegicus. In words: Inhibition of apomorphine-induced stereotypy in Rat, after peroral administration. It counts as functional. The settings on record: po.
Experiment [15] is filed under the species Rattus norvegicus. In words: Dose required to induce 50% maximum catalepsy in rat.
Experiment [16] deals with Mus musculus. The experiment is described as §1. The following applies: ip. The class given is functional.

Take `CC1CN(C(=O)c2ccc(F)cc2)CCN1CCCC(=O)c1ccc(F)cc1` (configuration not stated): the ED50 (in general, the dose that gives a 50% effect, or the effect in half of the subjects) in experiment [1] is > 200 mg/kg; in experiment [2], > 50 mg/kg; in experiment [4] it was > 50 mg/kg; in experiment [5], > 200 mg/kg. 50 mg/kg produced 22% inhibition in vivo in experiment [3].

As for `CC1CN(Cc2ccc(F)cc2)CCN1CCCC(=O)c1ccc(F)cc1` (configuration not stated), the ED50 is > 200 mg/kg in [1], > 50 mg/kg in [2], 45 mg/kg in experiment [4] and > 200 mg/kg in experiment [5]. Moreover, in [3], 50 mg/kg produced 19% inhibition in vivo.

Take `O=C(c1ccc(F)cc1)C1CCN(CCCOc2ccc3c(=O)c(CO)coc3c2)CC1`: the ED50 in [6] was 1.32 mg/kg; in [7] it was 35.9 mg/kg; in experiment [8] it was 14 mg/kg.

Consider `O=C(CCCN1CCC(Cc2ccccc2)CC1)c1ccc(F)cc1`, for which the ED50 came out at 15.2 mg/kg in experiment [1], 2.85 mg/kg in experiment [2] and 12.3 mg/kg in experiment [4]. Moreover, in experiment [3], at 50 mg/kg the inhibition in vivo was 46%.

Regarding `O=C(c1ccc(F)cc1)C1CCN(CCCOc2ccc(F)cc2)CC1`, the ED50 in experiment [1] was 4.3 mg/kg; in experiment [9] it was 1.82 mg/kg; in experiment [4], 1.15 mg/kg; in experiment [5] it was 4.9 mg/kg.

As for `CC1CN(Cc2ccccc2)CCN1CCCC(O)c1ccc(F)cc1` (configuration not stated), the ED50 in experiment [1] was > 200 mg/kg; in [2], > 50 mg/kg; in experiment [4] it was 35 mg/kg; in [5], > 200 mg/kg. Moreover, the inhibition in vivo (commonly how much of the control response was suppressed) at 50 mg/kg in [3] is 16%.

For `CC1CN(Cc2ccc(F)cc2)CCN1CCCC(O)c1ccc(F)cc1` (configuration not stated), the ED50 in experiment [1] is > 200 mg/kg; in [2] it was 30 mg/kg; in [4], 50 mg/kg; in experiment [5] it was > 200 mg/kg. In experiment [3], this compound registered an inhibition in vivo at 50 mg/kg of 48%.

For `CC1CN(C(=O)c2ccc(F)cc2)CCN1CCCC(O)c1ccc(F)cc1` (configuration not stated), the ED50 in [1] was > 200 mg/kg; in [2], > 50 mg/kg; in experiment [4], > 50 mg/kg; in experiment [5] it was > 200 mg/kg. Moreover, in [3], 50 mg/kg produced 0% inhibition in vivo.

`CC1CN(Cc2ccccc2)CCN1CCCC(=O)c1ccc(F)cc1` (configuration not stated): the ED50 in experiment [10] is > 200 mg/kg; in experiment [1], > 200 mg/kg; in experiment [2] it was 28.2 mg/kg; in experiment [4] it was 30 mg/kg. Besides, the inhibition in vivo at 50 mg/kg in experiment [3] is 30%.

Take `CN1CCN(C2=Nc3cc(Cl)ccc3Nc3ccccc32)CC1` [CLOZAPINE]: the ED50 in experiment [11] came to 85.3 mg/kg; in experiment [9] it was 7.7 mg/kg; in experiment [12] it was 11 mg/kg; in experiment [13] it was 107 mg/kg.

For `O=C(CCCN1CCC(O)(c2ccc(Cl)cc2)CC1)c1ccc(F)cc1` [HALOPERIDOL], the ED50 in [14] stood at 1.95 mg/kg; in experiment [9] it was 0.21 mg/kg; in experiment [12] it was 0.56 mg/kg; in experiment [13], 2.5 mg/kg.

Regarding `CCN1CCC[C@H]1CNC(=O)c1c(OC)ccc(Br)c1OC` [REMOXIPRIDE], the ED50 stood at 5.2 mg/kg in experiment [2], 11.1 mg/kg in experiment [6], 48.7 mg/kg in experiment [7] and 64.3 mg/kg in [8].

With `Cc1nc2n(c(=O)c1CCN1CCC(c3noc4cc(F)ccc34)CC1)CCCC2` [RISPERIDONE], the ED50 came out at 3.8 mg/kg in experiment [14], 0.74 mg/kg in [1], 5 mg/kg in experiment [15] and 0.2 mg/kg in experiment [16].
